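Briefly, cells in 96-well plates were exposed to five compound concentrations for 48 h, and endpoints were estimated by linear interpolation. TGI: total growth inhibition.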

Common to all, as to experiment: NCI tumour cell line growth inhibition, 48 h
Assay [1] concerns COLO 205 colon.
The subject of assay [2] is UACC-62 melanoma.
The test system of assay [3] is TK-10 renal.
The test system of assay [4] is NCI/ADR-RES ovarian.
The subject of assay [5] is SNB-75 CNS.
Assay [6] concerns NCI-H226 lung.
For assay [7], the system named is NCI-H23 lung.
In assay [8] the test system is SF-539 CNS.
Assay [9] deals with UACC-257 melanoma.
Assay [10] concerns K-562 leukemia.
The test system of assay [11] is DU-145 prostate.
For assay [12], the system named is IGROV1 ovarian.
For assay [13], the system named is EKVX NSCLC.
In assay [14] the test system is NCI-H460 lung.
Assay [15] relates to HCC-2998 colon.
The test system of assay [16] is UO-31 renal.
Assay [17] deals with RPMI-8226 leukemia.

Turning to `COc1cc2c3c(c1)CCCN3CCC2`, the TGI in assay [1], in assay [2], in assay [3], in assay [4], in assay [5] and in assay [6] was greater than 10 µM each time. The TGI in [7], in [8], in [9], in assay [10], in assay [11] and in assay [12] was greater than 10 µM in each case. The TGI in [13], in [14], in assay [15], in assay [16] and in assay [17] was greater than 10 µM throughout.
Consider `CC(C)(C)c1cc2c(OC/C=C/c3ccccc3)c(c1)Cc1cc(C(C#N)(OC/C=C/c3ccccc3)OC/C=C/c3ccccc3)cc(c1OC/C=C\c1ccccc1)Cc1cc(C(C)(C)C)cc(c1OC/C=C/c1ccccc1)Cc1cc(C(C#N)(OC/C=C\c3ccccc3)OC/C=C/c3ccccc3)cc(c1OC/C=C\c1ccccc1)C2` (stereo not drawn), for which the TGI in assay [1] was greater than 100 µM; in assay [2], greater than 100 µM; in assay [3], 54.3 µM; in [4], greater than 100 µM; in assay [5], greater than 100 µM; in [6], greater than 100 µM. The TGI in [7], in [8], in assay [9], in assay [10], in assay [11] and in [12] was greater than 100 µM each time. In addition, the TGI in assay [13], in assay [14], in assay [15], in assay [16] and in assay [17] was greater than 100 µM throughout.
In the case of `CN(C)c1ccc(C(Cc2ccccc2)C2NC(=S)NC2=O)cc1` (stereo not drawn), the TGI in [1], in assay [2], in assay [3], in assay [4], in assay [5] and in [6] was greater than 100 µM each time. Moreover, the TGI in assay [7], in assay [8], in assay [9], in assay [10], in assay [11] and in [12] was greater than 100 µM in each case. The TGI in assay [13], in [14], in [15], in [16] and in [17] was greater than 100 µM in each case.
Consider `COC1=CC(=O)C2=C(C1=O)[C@H]1CC[C@]3(C)[C@@H](O)CC[C@H]3[C@@H]1CC2`, for which the TGI in assay [1] was found to be 22.5 µM; in [2], 31.2 µM; in [3], 63.8 µM; in assay [4] it was 84 µM; in assay [5] it was 36.5 µM; in assay [6], 31.5 µM. Further, the TGI in [7] amounted to 56.8 µM; in [8], 30.6 µM; in [9] it was 30 µM; in assay [10], 83.8 µM; in [11] it was 31 µM; in assay [12] it was 44.7 µM. Moreover, the TGI is 30.5 µM in assay [13]; 35.8 µM in [14]; 42.8 µM in assay [15]; 43.5 µM in [16]; 44.4 µM in [17].
On to `CCN1C(=O)c2cc(OC)c(OC)cc2C(=O)C12OC(=O)c1cc3c(cc12)OCO3` (stereo not drawn), for which the TGI in [1] was greater than 100 µM; in assay [2], greater than 100 µM; in assay [3], greater than 100 µM; in assay [4], greater than 100 µM; in [5], 48.5 µM; in [6], greater than 100 µM. Further, the TGI in [7] was greater than 100 µM; in assay [8], greater than 100 µM; in [9], greater than 100 µM; in [10], greater than 100 µM; in assay [11] it was 88.4 µM; in assay [12] it was greater than 100 µM. Besides, the TGI in assay [13], in assay [14], in [15], in [16] and in assay [17] was greater than 100 µM in each case.
`COc1ccc(C(=O)/C=C/c2ccc(O)c(O)c2)c(OC)c1`: the TGI was 28.8 µM in [1]; 14.4 µM in [2]; 20.2 µM in [3]; greater than 61.2 µM in assay [4]; 29.5 µM in [5]; 22.3 µM in assay [6]. The TGI in assay [7] was 18.3 µM; in assay [8], 7.55 µM; in assay [9], 15.3 µM; in assay [10], greater than 37.6 µM; in [11], 15.7 µM; in [12] it was greater than 100 µM. Also, the TGI in [13] is greater than 79.6 µM; in assay [14] it was 15.9 µM; in assay [15], 3.4 µM; in assay [16], 41.6 µM; in assay [17], 15.8 µM.
Consider `C[n+]1ccc(/C2=C3\C=CC(=N3)/C(c3cc[n+](C)cc3)=c3/cc/c([nH]3)=C(\c3cc[n+](C)cc3)C3=N/C(=C(/c4cc[n+](C)cc4)C4C=CC2N4)C=C3)cc1`, for which the TGI in assay [1], in assay [2], in assay [3], in [4], in assay [5] and in assay [6] was greater than 100 µM throughout. Further, the TGI in assay [7], in [8], in [9], in [10], in assay [11] and in [12] was greater than 100 µM each time. Also, the TGI in assay [13], in assay [14], in assay [15], in assay [16] and in [17] was greater than 100 µM each time.
For the molecule `CC1(/C=C/CCSc2ccccc2)CC(=O)C2CC1C2(C)C` (stereo not drawn), the TGI was 70.6 µM in assay [1]; greater than 60 µM in [2]; greater than 70.1 µM in assay [3]; greater than 61.8 µM in assay [4]; greater than 100 µM in [5]; greater than 100 µM in assay [6]. Moreover, the TGI in assay [7] is greater than 100 µM; in assay [8], 31.5 µM; in [9], greater than 73.6 µM; in [10] it was greater than 100 µM; in [11], greater than 100 µM; in [12], 53.5 µM. Besides, the TGI in [13] was greater than 100 µM; in [14] it was 71.6 µM; in [15], greater than 73.5 µM; in assay [16], 43.5 µM; in assay [17] it was 18.8 µM.
In the case of `C=CCN1C(=O)/C(=C/c2cccs2)N=C1SC/C=C/C`, the TGI in assay [1] was 88.9 µM; in assay [2], greater than 100 µM; in [3] it was greater than 100 µM; in assay [4], greater than 100 µM; in assay [5], greater than 100 µM; in assay [6], greater than 100 µM. Moreover, the TGI in assay [7], in [8], in assay [9], in [10], in assay [11] and in assay [12] was greater than 100 µM in each case. For the same molecule, the TGI is greater than 100 µM in [13]; greater than 100 µM in [14]; greater than 100 µM in assay [15]; greater than 100 µM in assay [16]; 40.6 µM in [17].
